Measured values published in ChEMBL document CHEMBL5614390, “Novel EGFR inhibitors against resistant L858R/T790M/C797S mutant for intervention of non-small cell lung cancer” (Eur J Med Chem, 2024).
Activity calls are given as the source filed them. No cut-off for these calls is given here.

Columns and labels:
PC-9 [1] = assay: Antitumor activity against human PC-9 cells expressing EGFR L858R/T790M/C797S mutant xenografted in BALB/c nude mouse assessed as reduction in tumor volume at 10 to 40 mg/kg, po administered for 18 days; format: functional, organism-based; conditions: dose 10-40 mg/kg, time 18.0 day
PC-9 [2] = assay: Induction of cell cycle arrest in human PC-9 cells expressing EGFR L858R/T790M/C797S mutant assessed as accumulation of cells at G2/M phase at 1 uM incubated for 24 hrs by PI staining based flow cytometric analysis; format: functional
[3] = Metabolic stability in Sprague-Dawley rat liver microsomes assessed as half-life at 10 uM preincubated for 5 mins followed by NADPH addition and measured upto 60 mins by HPLC analysis; format: ADME, Microsome; conditions: time < 65 min
[4] = Toxicity in BALB/c nude mouse xenografted with human PC-9 cells expressing EGFR L858R/T790M/C797S mutant assessed as body weight loss at 10 to 40 mg/kg, po administered for 18 days; format: organism-based; conditions: in vivo, 432 h, dose 10-40 mg/kg, time 18 day
PC-9 [5] = assay: Induction of apoptosis in human PC-9 cells expressing EGFR L858R/T790M/C797S mutant assessed as viable cells at 0.5 uM incubated for 48 hrs by Annexin V-FITC/PI staining based flow cytometric analysis (reference value: 98.9 %); format: functional; conditions: read-out: Activity
[6] = Metabolic stability in mouse liver microsomes assessed as intrinsic clearance at 10 uM preincubated for 5 mins followed by NADPH addition and measured upto 60 mins by HPLC analysis; format: ADME, Microsome; conditions: time < 65 min, read-out: CLH
[7] = Metabolic stability in human liver microsomes assessed as intrinsic clearance at 10 uM preincubated for 5 mins followed by NADPH addition and measured upto 60 mins by HPLC analysis; format: ADME, Microsome; conditions: time < 65 min, read-out: CLH
PC-9 [8] = assay: cells; conditions: Homo sapiens, PC-9, 72 h
Description: Cytotoxicity against human PC-9 cells expressing EGFR L858R/T790M/C797S mutant assessed as inhibition of cell proliferation incubated for 72 hrs by CCK8 assay

PC-9 [9] = assay: Induction of apoptosis in human PC-9 cells expressing EGFR Del19/T790M/C797S mutant assessed as late apoptotic cells at 0.1 uM incubated for 48 hrs by Annexin V-FITC/PI staining based flow cytometric analysis (reference value: 0.040 %); format: functional
PC-9 [10] = assay: Induction of apoptosis in human PC-9 cells expressing EGFR Del19/T790M/C797S mutant assessed as late apoptotic cells at 0.5 uM incubated for 48 hrs by Annexin V-FITC/PI staining based flow cytometric analysis (reference value: 0.040 %); format: functional
PC-9 [11] = assay: Antitumor activity against human PC-9 cells expressing EGFR L858R/T790M/C797S mutant xenografted in BALB/c nude mouse assessed as tumor growth inhibition at 20 mg/kg, po administered for 18 days relative to control; format: functional; conditions: PC-9, 432 h, time 18 day, read-out: TGI
PC-9 [12] = assay: Induction of apoptosis in human PC-9 cells expressing EGFR Del19/T790M/C797S mutant assessed as necrotic cells at 1 uM incubated for 48 hrs by Annexin V-FITC/PI staining based flow cytometric analysis (reference value: 0.090 %); format: functional
MCF7 = assay: cells; conditions: Homo sapiens, MCF7, 72 h
Description: Cytotoxicity against human MCF7 cells assessed as inhibition of cell proliferation incubated for 72 hrs by CCK8 assay

[13] = Metabolic stability in rabbit liver microsomes assessed as half-life at 10 uM preincubated for 5 mins followed by NADPH addition and measured upto 60 mins by HPLC analysis; format: ADME, Oryctolagus cuniculus, Microsome; conditions: time < 65 min
PC-9 [14] = assay: Induction of cell cycle arrest in human PC-9 cells expressing EGFR Del19/T790M/C797S mutant assessed as S phase cells at 0.1 to 1 uM incubated for 24 hrs by PI staining based flow cytometric analysis (reference value: 32.4 +/- 1.1 %); format: functional; conditions: dose 0.1-1 µM
PC-9 [15] = assay: Induction of apoptosis in human PC-9 cells expressing EGFR L858R/T790M/C797S mutant assessed as late apoptotic cells at 0.1 uM incubated for 48 hrs by Annexin V-FITC/PI staining based flow cytometric analysis (reference value: 0.360 %); format: functional
PC-9 [16] = assay: cells; conditions: Homo sapiens, PC-9, 72 h; remark: listed apart in the source
Description: Cytotoxicity against human PC-9 cells expressing EGFR Del19/T790M/C797S mutant assessed as inhibition of cell proliferation incubated for 72 hrs by CCK8 assay

PC-9 [17] = assay: Induction of apoptosis in human PC-9 cells expressing EGFR L858R/T790M/C797S mutant assessed as late apoptotic cells at 1 uM incubated for 48 hrs by Annexin V-FITC/PI staining based flow cytometric analysis (reference value: 0.360 %); format: functional
PC-9 [18] = assay: Induction of apoptosis in human PC-9 cells expressing EGFR Del19/T790M/C797S mutant assessed as viable cells at 0.5 uM incubated for 48 hrs by Annexin V-FITC/PI staining based flow cytometric analysis (reference value: 99.8 %); format: functional; conditions: read-out: Activity
PC-9 [19] = assay: Induction of apoptosis in human PC-9 cells expressing EGFR Del19/T790M/C797S mutant assessed as necrotic cells at 0.5 uM incubated for 48 hrs by Annexin V-FITC/PI staining based flow cytometric analysis (reference value: 0.090 %); format: functional
PC-9 [20] = assay: Induction of apoptosis in human PC-9 cells expressing EGFR Del19/T790M/C797S mutant assessed as early apoptotic cells at 0.1 uM incubated for 48 hrs by Annexin V-FITC/PI staining based flow cytometric analysis (reference value: 0.050 %); format: functional
PC-9 [21] = assay: Induction of cell cycle arrest in human PC-9 cells expressing EGFR Del19/T790M/C797S mutant assessed as accumulation of cells at G2/M phase at 1 uM incubated for 24 hrs by PI staining based flow cytometric analysis; format: functional
PC-9 [22] = assay: Induction of apoptosis in human PC-9 cells expressing EGFR L858R/T790M/C797S mutant assessed as early apoptotic cells at 0.5 uM incubated for 48 hrs by Annexin V-FITC/PI staining based flow cytometric analysis (reference value: 0.210 %); format: functional
[23] = Metabolic stability in Sprague-Dawley rat liver microsomes assessed as intrinsic clearance at 10 uM preincubated for 5 mins followed by NADPH addition and measured upto 60 mins by HPLC analysis; format: ADME, Microsome; conditions: time < 65 min, read-out: CLH
PC-9 [24] = assay: Induction of apoptosis in human PC-9 cells expressing EGFR Del19/T790M/C797S mutant assessed as viable cells at 1 uM incubated for 48 hrs by Annexin V-FITC/PI staining based flow cytometric analysis (reference value: 99.8 %); format: functional; conditions: Homo sapiens, PC-9, read-out: Activity
PC-9 [25] = assay: Induction of apoptosis in human PC-9 cells expressing EGFR L858R/T790M/C797S mutant assessed as necrotic cells at 0.5 uM incubated for 48 hrs by Annexin V-FITC/PI staining based flow cytometric analysis (reference value: 0.540 %); format: functional
PC-9 [26] = assay: Induction of apoptosis in human PC-9 cells expressing EGFR L858R/T790M/C797S mutant assessed as viable cells at 0.1 uM incubated for 48 hrs by Annexin V-FITC/PI staining based flow cytometric analysis (reference value: 98.9 %); format: functional; conditions: read-out: Activity
PC-9 [27] = assay: Antitumor activity against human PC-9 cells expressing EGFR L858R/T790M/C797S mutant xenografted in BALB/c nude mouse assessed as average tumor weight at 40 mg/kg, po administered for 18 days (reference value: 0.83 g); format: functional; conditions: time 18 day

With C=CC(=O)Nc1cc(Nc2ncc(F)c(-c3ccc4cc(C(=O)NC)n(C(C)C)c4c3)n2)ccc1N1CCN(C)CC1 the Activity (PC-9 [1]) was “Active”, the Activity (PC-9 [2]) was “Active” and the half-life at 10 µM [3] was 1.48 h. The Activity [4] was “Non-Toxic”, the viability at 0.5 µM (PC-9 [5]) was 61.2% and the microsomal CLint at 10 µM [6] was 56 µL/min/mg. It also gave a microsomal CLint at 10 µM [7] of 20 µL/min/mg, an IC50 (PC-9 [8]) of 0.052 µM and an Activity (PC-9 [9]) of 7.34%. The Activity (PC-9 [10]) was 4.19%, the inhibition in vivo at 20 mg/kg (PC-9 [11]) was 58.4% and the Activity (PC-9 [12]) was 1.01%. It also gave an IC50 (MCF7) of 3.61 µM, a half-life at 10 µM [13] of 2.36 h and an Activity (PC-9 [14]) of 15.6%. For the same compound, the Activity (PC-9 [15]) was 7.25%, the IC50 (PC-9 [16]) was 0.201 µM and the Activity (PC-9 [17]) was 4.02%. For the same compound, the viability at 0.5 µM (PC-9 [18]) was 82.8%, the Activity (PC-9 [19]) was 1.2% and the Activity (PC-9 [20]) was 3.32%. The Activity (PC-9 [21]) was “Active”, the Activity (PC-9 [22]) was 30.3% and the microsomal CLint at 10 µM [23] was 52 µL/min/mg. For the same compound, the viability at 1 µM (PC-9 [24]) was 79.1%, the Activity (PC-9 [25]) was 1.77% and the viability at 0.1 µM (PC-9 [26]) was 84.9%. The Activity (PC-9 [27]) was 0.31 g.
